Test system: Jurkat cells
Assay: Caspase 3/7 assay: apoptosis of Jurkat cells co-cultured with IFN-γ-treated A549 cells (PD-1/PD-L1 binding)
Format: cell-based
Settings: Homo sapiens; for IC50: Jurkat cells co-cultured with A549 cells pre-cultured with IFN-γ and test compound, read-out: IC50 (50% inhibition concentration of Caspase 3/7 activity)
Description: The supernatants of each culture liquid containing A549 cells expressing PD-L1 pre-cultured with the addition of IFN-γ or human acute T-cell leukemia cell-derived Jurkat cells expressing PD-1 pre-cultured with the addition of Phorbol 12-myristate 13-Acetate (hereinafter, referred to as “PMA”: Sigma Cat #1585) and phytohemagglutinin-L (hereinafter, referred to as “PHA-L”: Roche Cat #11249738001) were removed, the culture liquids were co-cultured in new medium. The Caspase 3/7 activity of the co-cultured Jurkat cells was measured, and the measured activity was used as an index of apoptosis. Each test compound was added into the A549 cell culture liquid during the pre-culture.
(1) A549 cells were suspended in DMEM medium at 1×10^5 cells/mL to prepare an A549 cell suspension, and the A549 cell suspension was dispensed into each well a 6 well plate in an amount of 3 mL.
(2) Separately, Jurkat cells were suspended in RPMI medium at 3×10^5 cells/mL to prepare a Jurkat cell suspension, and the Jurkat cell suspension was dispensed into a T25 flask in an amount of 5 mL.
(3) The 6-well plate of the above step (1) and the T25 flask of the above step (2) were incubated together in a CO2 incubator (at 37° C. and 5% CO2) for 24±2 hours.
(1) To 3 mL of the A549 cell culture liquid were added IFN-γ (25 ng/mL) and a test compound, and the cell culture liquid was continuously cultured. The 50 mmol/L solution of the test compound in DMSO was diluted to 100 times with DMEM medium, and then the diluted solution was added as test compound group in an amount of 3 μL, 6 μL or 12 μL (final concentration: 0.5 μmol/L, 1.0 μmol/L or 2 μmol/L). In the control group, DMSO diluted to 100 times with DMEM medium was added in an amount of 12 μL. (2) Separately, to the Jurkat cell culture liquid were added PMA (final concentration: 12.5 ng/mL) and PHA (final concentration: 250 ng/mL), and the cell culture liquid was continuously cultured. [Day 3]
Cells were separated from A549 cell culture liquid with Cell Dissociation Solution Non-enzymatic (Sigma Cat No. C5914-100ML), and the cell culture liquid was centrifuged at 300×g for 5 minutes and the supernatant thereof was removed, and then the cells were suspended in RPMI medium at 4×10^5 cells/mL to prepare an A549 cell suspension.
The Jurkat cell culture liquid was centrifuged at 300×g for 5 minutes and the supernatant thereof was removed, and then the cells therein were suspended in RPMI medium at 4×10^4 cells/mL to prepare a Jurkat cell suspension.
0.25 mL of the prepared A549 cell suspension and 0.25 mL of the prepared Jurkat cell suspension (the ratio of the number of the cells is 10:1) were added into each well in a 24-well plate. 0.25 mL of A549 cells and 0.25 mL of RPMI medium were mixed and the mixture was cultured at 37° C. and 5% CO2 to prepare an A549 blank containing only A549 cells which is not co-cultured with Jurkat cells. The PD-L1 expression in A549 cells after 2 days from IFN-γ treatment and the PD-1 expression in Jurkat cells stimulated with PMA and PHA were confirmed by staining the cells with anti-CD274-PC7 antibody (PD-L1) or anti-CD279-FITC antibody (PD-1, eBioscience Cat No. 11-9969-42) in a similar procedure to that of Test Example 2 and measuring the stained cells with a flow cytometer.
The cells were cultured under the following 6 conditions.
(IF−Comp−): Co-culture of A549 cells pre-cultured without the addition of IFN-γ and the test compound as well as Jurkat cells
(IF+Comp−): Co-culture of A549 cells pre-cultured with the addition of IFN-γ and no test compound as well as Jurkat cells
(IF+Comp+): Co-culture of A549 cells pre-cultured with the addition of IFN-γ and the test compound as well as Jurkat cells
(A:IF−Comp−): Culture of only […] A549 cells pre-cultured without the addition of IFN-γ and the test compound
(A:IF+Comp−): Culture of only A549 cells pre-cultured with the addition of IFN-γ and no test compound […]

SMILES | IC50 [nM] | activity at 0.25 µM (Jurkat, 0.25 μM, control (DMSO) defined as 100%) [%] | activity at 0.5 µM (Jurkat, 0.5 μM, control (DMSO) defined as 100%) [%] | activity at 1 µM (Jurkat, 1 μM, control (DMSO) defined as 100%) [%]
O=C(Nc1ccc(Oc2ccc(C(F)(F)F)cc2)cc1)C1CCCN(C(=O)c2ccc([N+](=O)[O-])cc2)C1 (stereo not shown) [Example 2, 1-(4-Nitrobenzoyl)-N-(4-(4-(trifluoromethyl)phenoxy)phenyl) piperidine-3-carboxamide] | 1100 | – | – | –
COc1cc(C(=O)N2CCCC(C(=O)Nc3ccc(Oc4ccc(C(F)(F)F)cc4)cc3)C2)ccc1O (stereo not shown) [Example 3, 1-(4-Hydroxy-3-methoxybenzoyl)-N-(4-(4-(trifluoromethyl)phenoxy)phenyl)piperidine-3-carboxamide] | 870 | – | – | –
O=C(Nc1ccc(Oc2ccc(S(F)(F)(F)(F)F)cc2)cc1)C1CCCN(C(=O)c2ccc([N+](=O)[O-])cc2)C1 (stereo not shown) [Example 5, 1-(4-Nitrobenzoyl)-N-(4-(4-(pentafluorosulfanyl)phenoxy)phenyl)piperidine-3-carboxamide] | 520 | 81.5 | 55.3 | 32.1
COc1cc(C(=O)N2CCCC(C(=O)Nc3ccc(Oc4ccc(S(F)(F)(F)(F)F)cc4)cc3)C2)ccc1O (stereo not shown) [Example 6, 1-(4-Hydroxy-3-methoxybenzoyl)-N-(4-(4-(pentafluorosulfanyl)phenoxy)phenyl)piperidine-3-carboxamide] | 740 | – | – | –

Reference: patent publication US11591297B2, “Compound having PD-L1 expression-suppressing action” (TOHOKU UNIVERSITY, priority 2019, dated 2023)
